Data on 3 molecules can be found in patent publication US12528777B2, “Quinazolinones derivatives for treatment of non-alcoholic fatty liver disease, preparation and use thereof” (Council of Scientific and Industrial Research, priority 2020, dated 2026).

“Also recorded” adds a separate entry of the source.

In data set [1] the test system is ATGL. Description: Reversal of ATGL decrease in COP1 overexpressing HepG2 cells. The format is cell-based. As to conditions: myc-DDK-COP1, 5 μM, 24 hours. The procedure: COP1 is an E3 ubiquitin ligase with ATGL as one of its targets for ubiquitination and subsequent proteasomal degradation by 26S proteasome. Therefore, it is only legit for ATGL levels to decrease upon COP1 overexpression. To this end, HepG2 cells were transfected with 500 ng of myc-DDK-COP1 plasmid using Lipofectamine 2000 and treated with 5 μM of the compounds 9 and 10 for 24 hours. 48 hours post transfection, cells were harvested and western blot was carried out.

The subject of data set [2] is ATGL. The experiment in a line: In vivo study: ATGL level in mouse liver. Also on record: species or system C57BL/6 mice. The conditions noted are these: 30 mg/kg orally. The procedure: 6-8 weeks old healthy female C57BL/6 mice (average weight: 25 grams) were taken for the study. These were then divided into three groups comprising of three mice per group (Control, compound 107 fed for 8 hours and compound 107 fed for 16 hours). Mice were fed with 30 mg/kg of compound 107 orally. The compound was dissolved in 25% DMSO and 75% PBS. The control group was fed only with the solvent in which the compound was dissolved. Post 8 hours and 16 hours of feeding, mice were sacrificed and a portion of the excised liver tissue was homogenized in lysis buffer containing protease inhibitor cocktail. The homogenate was centrifuged at 20,000 g for 30 minutes following which the supernatant containing the protein lysate was collected. The lysate was then diluted accordingly and protein estimation was carried out by Bradford Assay. This was followed by Western Blotting wherein the levels of ATGL and COP1 were checked. Actin was used as the loading control.

The target in data set [3] is COP1 (Homo sapiens, UniProt Q8NHY2). Description: Western blot of COP1 level in HepG2 cells. As to conditions: 24 hours, dose dependent. The data set is classed as cell-based. How it is done:
HepG2 cells were treated with the compounds 9, 10, 11, 17, 18, 23, 24, 115, 123, 127, 139,107, 171, 179, 73, 187, 211, 215, 219, 223, 232, 238, 241, 244, 258, 299, 308, and 333a, (10 μM for initial screening and 50 nM, 100 nM, 200 nM, 500 nM, 1 μM and 5 μM for dose dependent assays) for 24 hours. After removing media from the cells, the wells were washed with 1×PBS twice to remove any remnant media. Cells were then lysed in lysis buffer containing 50 mM Tris-HCl (pH 7.4), 100 mM NaCl, 1 mM EDTA, 1 mM EGTA, 1% Triton X-100 and protease inhibitor cocktail (Millipore, Billierica, MA, USA). Following centrifugation at 20,000 g for 20 minutes, the protein solution was extracted from the cells. Protein was estimated using Bradford assay. Bradford's reagent (BioRad) was diluted in 1:4 ratio in double distilled water. 2 μl of protein sample was added to 100 μl of the reagent and absorbance was measured at 595 nm. […] of protein was diluted in lysis buffer. 1× loading buffer diluted from 5× stock containing 250 mM Tris-HCl (pH 6.8), 10% SDS, 50% glycerol, 0.1% bromophenol Blue and 10% β-mercaptoethanol was added. The protein samples were then heated at 95° C. for 10 minutes, cooled and centrifuged at 12,000 g for 2 minutes prior to loading.
For western blotting, the proteins were resolved in 10% SDS PAGE (discontinuous buffer system). […]
A general note: Immunoblotting shows a protein as a band on a membrane.

The target in data set [4] is COP1 (Mus musculus, UniProt Q9R1A8). The experiment in a line: COP1 level in primary mouse hepatocytes (western blot). The format is cell-based. Also on record: endogenous in cells; host or cells: primary mouse hepatocytes (C57bl/6). The conditions noted are these: 24 hours. The procedure: To further strengthen the efficiency of the compounds 9 and 107, primary hepatocytes were isolated from mice and these compounds were treated in a dose dependent manner for 24 hours. Primary hepatocytes and adipose tissue explants were isolated from mice and subjected to compound treatment for 24 hours at the doses of 100 nM, 500 nM and 1 μM. Post cell harvesting, western blot was carried out with the lysate to check the ATGL level. ATGL and COP1 antibodies were used. Actin served the purpose of a loading control.
Chain of COP1 (Mus musculus, UniProt Q9R1A8) (Q9R1A8 whole entry): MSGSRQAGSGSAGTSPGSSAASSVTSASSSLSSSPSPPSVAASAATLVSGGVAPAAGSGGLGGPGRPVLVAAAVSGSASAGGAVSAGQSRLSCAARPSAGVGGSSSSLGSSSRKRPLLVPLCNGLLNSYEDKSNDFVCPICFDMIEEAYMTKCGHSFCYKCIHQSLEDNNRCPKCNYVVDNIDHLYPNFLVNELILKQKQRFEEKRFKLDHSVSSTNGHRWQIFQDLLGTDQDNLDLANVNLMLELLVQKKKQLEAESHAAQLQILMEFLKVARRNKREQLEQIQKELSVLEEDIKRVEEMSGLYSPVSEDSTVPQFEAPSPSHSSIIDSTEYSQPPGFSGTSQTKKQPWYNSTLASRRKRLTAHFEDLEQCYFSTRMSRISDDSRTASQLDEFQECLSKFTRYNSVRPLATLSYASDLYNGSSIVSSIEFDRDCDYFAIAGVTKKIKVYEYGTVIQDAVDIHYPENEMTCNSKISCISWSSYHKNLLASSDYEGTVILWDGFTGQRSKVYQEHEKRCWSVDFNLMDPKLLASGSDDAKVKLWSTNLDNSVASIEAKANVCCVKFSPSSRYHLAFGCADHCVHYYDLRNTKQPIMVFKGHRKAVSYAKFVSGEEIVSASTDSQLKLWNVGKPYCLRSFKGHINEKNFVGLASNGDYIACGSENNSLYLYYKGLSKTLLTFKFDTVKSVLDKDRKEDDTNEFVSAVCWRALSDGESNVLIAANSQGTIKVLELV
1. Hepatocytes—2-4 months old chow-fed black male mouse (C57bl/6) was sacrificed using chloroform (SRL) and was cleaned with 70% ethanol. […] Blood was drawn from the heart in order to prevent backflow into liver while perfusion. The butterfly cannula was inserted into the PV and 20 ml of HBSS (Hank's Balanced Salt Solution; 5 mM KCl, 0.4 mM KH2PO4, 4 mM NaHCO3, 140 mM NaCl, 0.3 mM Na2HPO4, 6 mM Glucose, HEPES, 0.5 mM MgCl2·6H2O, 0.4 mM MgSO4·7H2O, 0.5 mM EDTA; not containing 1 mM CaCl2)) was allowed to pass through the liver (Perfusion) at a constant flow rate of 3 ml/min, maintained by Masterflex digital peristaltic pump (Cole-Parmer). The IVC was cut as soon as the passage of the buffer through the liver began, so that blood and perfusate from liver is drained through the IVC. The liver blanched and became pale in color upon this treatment. […]

Chain of COP1 (Homo sapiens, UniProt Q8NHY2) (Q8NHY2 whole entry): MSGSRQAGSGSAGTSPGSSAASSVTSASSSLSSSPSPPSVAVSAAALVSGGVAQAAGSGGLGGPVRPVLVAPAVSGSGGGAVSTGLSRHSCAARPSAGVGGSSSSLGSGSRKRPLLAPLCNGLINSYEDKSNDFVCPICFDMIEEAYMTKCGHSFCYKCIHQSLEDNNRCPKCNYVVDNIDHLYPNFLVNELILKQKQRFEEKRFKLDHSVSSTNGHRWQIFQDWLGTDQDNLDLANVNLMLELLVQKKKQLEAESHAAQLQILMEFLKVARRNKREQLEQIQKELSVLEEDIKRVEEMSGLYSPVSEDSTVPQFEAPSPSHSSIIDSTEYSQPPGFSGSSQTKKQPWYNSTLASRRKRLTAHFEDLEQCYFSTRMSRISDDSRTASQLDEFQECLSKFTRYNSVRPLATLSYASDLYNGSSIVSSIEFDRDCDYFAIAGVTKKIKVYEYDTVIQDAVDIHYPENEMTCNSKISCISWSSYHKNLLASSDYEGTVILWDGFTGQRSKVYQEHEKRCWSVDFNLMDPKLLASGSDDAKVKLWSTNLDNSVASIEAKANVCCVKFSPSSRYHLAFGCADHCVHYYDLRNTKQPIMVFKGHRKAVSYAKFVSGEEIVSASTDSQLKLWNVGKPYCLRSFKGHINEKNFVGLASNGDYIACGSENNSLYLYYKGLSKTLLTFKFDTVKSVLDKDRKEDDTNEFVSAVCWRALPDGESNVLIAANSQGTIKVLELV

Turning to `COCCn1cnc2ccc(NC(=O)Nc3cccc(C(C)=O)c3)cc2c1=O` [Compound 9, 1-(3-acetylphenyl)-3-(3-(2-methoxyethyl)-4-oxo-3,4-dihydroquinazolin-6-yl)urea], the “Restoration of ATGL level upon COP1 overexpression” value in the data set on ATGL [1] is reported as “could restore the reduced ATGL level; also recorded: could restore ATGL to its normal level”. `COCCn1c(C)nc2ccc(NC(=O)Nc3cccc(C(C)=O)c3)cc2c1=O` [Compound 107, 1-(3-acetylphenyl)-3-(3-(2-methoxyethyl)-2-methyl-4-oxo-3,4-dihydroquinazolin-6-yl)urea]: the “ATGL level in liver, 8 hours after feeding” value in the data set with ATGL [2] (8 hours) is “modestly increase ATGL level; also recorded: no significant impact”. Moreover, in the data set with ATGL [2] (16 hours), the “ATGL level in liver, 16 hours after feeding” value is “modestly increase ATGL level; also recorded: effective in increasing ATGL and COP1 levels”. `COCCn1c(CN2CCCCC2)nc2ccc(NC(=O)Nc3cccc(C(C)=O)c3)cc2c1=O` [Compound 238, 1-(3-acetylphenyl)-3-(3-(2-methoxyethyl)-4-oxo-2-(piperidin-1-ylmethyl)-3,4-dihydroquinazolin-6-yl)urea]: at COP1 [3], the “COP1 level in HepG2 cells” value is “most potent in increasing ATGL and COP1 levels; also recorded: increase in ATGL and COP1 levels”. Besides, the “COP1 level in primary mouse hepatocytes” value on COP1 [4] is “increase ATGL and COP1 levels dose dependently; also recorded: increased only with 5 μM concentration”.
